Data: patent US4885301A, “Purinone derivatives which have bronchodilator, vasodilator and anti-allergic activities” (Smith Kline & French Laboratories Limited, priority 1987, dated 1989)

Key:
[1] = tested on: U46619-induced bronchoconstriction; experiment: Bronchodilatation in vivo: U46619-induced bronchoconstriction in anaesthetised guinea-pigs; parameters: species or system guinea-pig (male Dunkin Hartley); conditions: Cavia porcellus, iv; i.v. bolus; U46619 infused i.v. 2.5 nmol/min; peak inhibition; read-out: BD50 (dose required to reduce the U46619-induced bronchoconstriction by 50%)
Description: Male guinea-pigs of the Dunkin Hartley strain (500-600 g) were anaesthetised with Sagatal (pentobarbital sodium) (60 mg/kg).
The dose of compound required to reduce the U46619-induced bronchoconstriction by 50% is given as the BD50.

[2] = target: T1, calmodulin insensitive cyclic GMP phosphodiesterase (Sus scrofa, UniProt A0A287B475); experiment: Inhibition of phosphodiesterase (PDE), cyclic GMP hydrolysis; assay type: biochemical, pig; conditions: 1 μM cyclic GMP, pH 7.5, 37° C.
T1 construct: Following dissection arteries were flash frozen in liquid nitrogen; from tissue; host or cells: pig pulmonary arteries or aortas, partially purified on DEAE-Sepharose, calmodulin-agarose and cibacron blue-agarose
Description: (§1) Eight pig hearts/lungs were collected from the abattoir and kept on ice until the pulmonary arteries or aortas could be dissected and excess fat removed. 120 g of tissue was dissected. Unless otherwise stated all procedures were done at 4° C. Following dissection arteries were flash frozen in liquid nitrogen and stored at -70° C. until required. On the day of homogenisation, tissue was cooled with liquid nitrogen and broken into small pieces by striking with a hammer. The tissue was then homogenised in 15 mM BIS-TRIS, 1 μg/ml leupeptin and antipain, 2 μg/ml pepstatin A, 5 μM benzamidine, 2 mM EDTA (ethylenediaminetetraacetic acid) and 2 mM dithiothreitol, pH 6.5. Phenylmethanesulphonylfluoride (PMSF) was added to a final concentration of 50 μM just prior to homogenisation. The homogenate was then centrifuged for 20 minutes at 30,000 g. Supernatant was filtered firstly through glass wool and then a 0.45 μm filter. […] The column was washed with 150 mls of homogenisation buffer and PDE activities eluted with 150 ml of homogenisation buffer containing 100 mM sodium acetate. Six 25 ml fractions were collected, the flow rate throughout was 80 ml/hr.
Fractions 2 and 3 were pooled and BIS-TRIS, MgCl2, CaCl2 added to final concentrations of 50 mM, 7 mM and 5 mM respectively. PMSF, leupeptin, antipain and pepstatin A were also added at the concentrations described above for these components. The pH of this pooled sample was corrected to 6.9.
The sample was applied, at a flow rate of 3 ml/hr, to a tandem column set up. The first column in the tandem was a 5 ml calmodulin-agarose column (Sigma) and the second a 1.5 ml cibacron blue 3GA-agarose column (Sigma). Both columns were pre-equilibrated with 50 mM BIS-TRIS, 5 mM MgCl2, 5 mM CaCl2, 5 mM benzamidine, 2 mM dithiothreitol pH 6.9. Following application of the sample the columns were washed with 20 ml of equilibration buffer.
The cibacron blue-agarose column was then disconnected and washed with a variety of buffers as indicated below (Buffer A=50 mM BIS-TRIS, 5 mM benzamidine, 2 mM dithiotheitol pH 7.0).
20 ml Buffer A+2M NaCl, 5 mM MgCl2
20 ml Buffer A+2M NaCl, 10 mM EDTA
PDE activity bound to the column was eluted with eight 2.5 ml aliquots of Buffer A containing 2M NaCl, 10 mM EDTA and 10 mM cGMP. Fractions found to contain PDE activity were pooled and concentrated to approximately 1/3 the original volume by dialysis for 2 hr against Buffer A:glycerol (50:50) containing 15 mM 2-mercaptoethanol, 2 mM EDTA. After dialysis the concentration of cGMP in the fraction was reduced by treatment using a PD-10 column (Pharmacia) using dialysis buffer.
The fraction produced was stored at -20° C. and for experiments diluted 50-fold and used as the source of PDE activity for the assay of compounds.
The standard reaction mixture contained, in a final volume of 100 μl,
1 μM 3', 5'-cGMP (including 0.1 μCi ^3 H-cGMP)
and buffered with 50 mM TRIS/5 mM MgCl2 pH 7.5. The reaction was initiated with enzyme, and was carried out at 37° C. for 5-10 minutes. The reaction was terminated by placing tubes in a boiling water bath for 2 minutes. […] Unreacted ^3 H-cGMP was washed from the column with 10×1 ml HEPES/NaCl buffer. Labelled […] was eluted into a scintillation vial with 6 ml 0.25M acetic acid and counted in a scintillation counter using 10 ml Instagel (Packard). […] Assays were performed in duplicate and values corrected for blanks of <2%.

[3] = tested on: guinea-pig isolated trachea; experiment: Anti-allergic activity in vitro: ovalbumin-induced contraction of isolated trachea from sensitized guinea pigs; parameters: species or system guinea pig (male Hartley); conditions: for activity at 100 µM / Emax at 100 µM: Cavia porcellus, mean ± S.E.; for activity at 100 µM: 0.2 h, 30 min pretreatment, 12 minutes after OA (0.1 μg/ml), decline P<0.05, read-out: OA-induced contractile force as percentage of vehicle-treated control; for Emax at 100 µM: prior to OA challenge, N=4, read-out: reduction of basal tone, as a percentage of the maximum response to carbachol; for inhibition of antigen-induced contraction (in words): guinea-pig isolated trachea, 100 μM
Description: The animals were injected intramuscularly with 0.7 ml of a 5.0% OA solution prepared in isotonic saline. Four weeks after sensitization tracheas were removed and cut into spiral strips. Each trachea was cut half, placed in 10-ml water-jacketed tissue baths and attached with biological tissue clips via silk suture to force displacement transducers for recording isometric tension. One half of each trachea served as a control for the corresponding drug-treated tissue. […] The tissue preparations were placed under 2 g passive tension and equilibrated for 60 minutes, during which time they were washed every 15 minutes with fresh buffer. Each tissue was pretreated for 45 minutes with meclofenamic acid (1 μM).
Tissues were pretreated with the compound under test (100 μM), or vehicle (0.4 mM NaOH) for 30 minutes prior to the addition of OA. OA (0.1 μg/ml) was added to all tissues and the contraction was monitored for 15 minutes. […] To evaluate effects of the test compounds, the degree of contraction was calculated 2 and 12 minutes after the addition of OA. OA-induced contraction of drug-treated tissues was expressed as a percentage of the response of vehicle-treated, paired controls.
Results are expressed as a mean ±S.E. of 4 experiments. Statistical significance of differences between the means of control and drug-treated groups was determined using a paired Student's t test.

[4] = tested on: hindquarter vascular resistance; experiment: Vasodilatation in vivo: hindquarter blood flow in anaesthetised rats; parameters: species or system rat (male Wistar); conditions: Rattus norvegicus, iv, bolus i.v., read-out: EDHQ50 (dose required to produce a 50% increase in hindquarter blood flow)
Description: Male Wistar rats (300 g) were anaesthetised with a sodium 5-ethyl-5-(1-methylpropyl)-2-thiobarbiturate/sodium pentobarbitone mixture i.p. (62.5 and 22.5 mg/kg respectively). The trachea was cannulated and the rats breathed spontaneously air enriched with O2 (5 ml/min). Blood pressure was recorded from a carotid artery and a jugular vein was cannulated for the administration of compounds. The temperature of the animal was maintained at 37° C. by the use of an electric blanket. […] The perfusion circuit was primed with 5% bovine serum albumin dissolved in 0.9% sodium chloride solution, pH adjusted to 7.4. Initially the pump rate was set between 10 and 15 ml/min to match the hind quarter perfusion pressure to that of the systemic circulation. Once set the pressure remained unaltered for the rest of the experiment. A change in the speed of the pump (equivalent to hindquarter blood flow) was used to assess the changes in hindquarter vascular resistance.
All compounds were administered as a bolus i.v. and from the dose response curves the dose required to produce a 50% increase in hindquarter blood flow (EDHQ50) was determined in μmoles/kg.

[5] = tested on: PDE activity isolated from pig pulmonary arteries or aortas; experiment: Properties of PDE activity: substrate kinetics; assay type: biochemical
Description: as §1
Fractions 2 and 3 were pooled and BIS-TRIS, MgCl2, CaCl2 added to final concentrations of 50 mM, 7 mM and 5 mM respectively. PMSF, leupeptin, antipain and pepstatin A were also added at the concentrations described above for these components. […]

[6] = tested on: antigen-induced bronchoconstriction; experiment: Anti-allergic activity in vivo: ovalbumin-induced bronchoconstriction in sensitized anesthetized guinea pigs; parameters: species or system guinea pig (adult male albino Hartley); conditions: 100 μmol/kg intraduodenal
Description: Adult male albino Hartley strain guinea pigs weighing 400-600 g were actively sensitized to OA according to the procedure hereinbefore described. To measure pulmonary mechanics, a polyethylene catheter was inserted into the trachea of anesthetized (sodium pentobarbital, 35 mg/kg, i.p.) animals and airflow was measured via a heated pneumotachograph in combination with a differential pressure transducer connected to the pneumotachograph. Airflow and transpulmonary pressure signals were fed into an on-line pulmonary mechanics computer which integrated the flow signal to obtain tidal volume. Total pulmonary resistance (RL) and dynamic lung compliance (CDYN) were calculated at isovolumetric points according to the method of Amdur and Mead (Am. J. Physiol. 192:364-368, 1958).
A compound under test was dissolved in 25 mM NaHCO3 plus one drop of polyethylene glycol 400 to a concentration of 100 mM. Based on the weight of the animal, the appropriate amount of solution was removed and the volume brought up to 1 ml with 25 mM NaHCO3. For the intraduodenal administration of test compounds, a small midline incision was made in the abdomen, the duodenum was exposed, and a butterfly needle attached to plastic tubing was inserted. All solutions were adjusted to the same volume (1 ml) and administered through the butterfly needle and followed with 0.5 ml of distilled water. The needle was then removed and the abdominal incision was stapled to prevent heat loss.
Aerosols of OA were generated to deliver approximately 0.375 μl/breath. Pressure, flow rate and sensitivity were set such that a maximum pleural pressure of 20 cm water was attained during inhalation. One hour after the administration of the test compounds, quinea pigs were challenged with 5 inhalations of OA (0.5 mg/ml) via the tracheal cannula and changes in CDYN and RL were monitored for 10 minutes. […]
Results are expressed as a mean ± S.E. of 4 experiments. Statistical significance of differences between the means of control and drug-treated groups was determined using a unpaired Student's t test.

Row | Structure (SMILES) | ED50 [1] | IC50 [2] | also measured
1 | CCCCOc1ccccc1-c1nc2nc[nH]c2c(=O)[nH]1 [Example 3, 2-(2-Butoxyphenyl)-6-purinone] | 3.8 µmol/kg | 5.04 µM | 
2 | CCCOc1ccccc1-c1nc2[nH]c(=O)[nH]c2c(=O)[nH]1 [Example 5, 2-(2-Propoxyphenyl)purine-6,8-dione] | 1 µmol/kg | 1.25 µM | activity at 100 µM [3]: 60 ± 4%; Emax at 100 µM [3]: 24 ± 7%; inhibition of antigen-induced contraction (in words) [3]: inhibit antigen-induced contraction of the guinea-pig isolated trachea; ED50 [4]: 3.7 µmol/kg
3 | Nc1nc2c(ncn2[C@@H]2O[C@@H]3COP(=O)(O)O[C@H]3[C@H]2O)c(=O)[nH]1 [cGMP] |  |  | Ratio of cGMP/cAMP hydrolysis ([5]; 1 μM substrate): 30; Km ([5]; substrate of the isolated PDE): 1300 nM
4 | CCOc1ccccc1-c1nc2[nH]c(=O)[nH]c2c(=O)[nH]1 [Example 7, 2-(2-Ethoxyphenyl)purine-6,8-dione] | 3.6 µmol/kg | 5.26 µM | 
5 | CCCOc1ccccc1-c1nc2nc[nH]c2c(=O)[nH]1 [Example 1, 2-(2-Propoxyphenyl)-6-purinone] | 3.6 µmol/kg |  | antigen-induced bronchoconstriction (in words) ([6]; 60 minutes before OA challenge, N=4): significantly reduced antigen-induced bronchoconstriction; increase in total pulmonary resistance (RL) after OA challenge ([6]; 60 minutes before OA, 5 minutes after challenge, N=4, mean ± S.E., P<0.05 vs. vehicle (vehicle 162±40%)): 51±26%; dynamic lung compliance (CDYN) after OA challenge (in words) ([6]; 60 minutes before OA, 5 minutes after challenge, P<0.01 vs. vehicle): unchanged from baseline; activity at 100 µM [3]: 46 ± 9%; Emax at 100 µM [3]: 17 ± 3%; inhibition of antigen-induced contraction (in words) [3]: inhibit antigen-induced contraction of the guinea-pig isolated trachea; ED50 [4]: 10.8 µmol/kg
6 | CCCCOc1ccccc1-c1nc2[nH]c(=O)[nH]c2c(=O)[nH]1 [Example 8, 2-(2-Butoxyphenyl)purine-6,8-dione] | 1.5 µmol/kg | 6.79 µM | 
7 | CC(C)COc1ccccc1-c1nc2nc[nH]c2c(=O)[nH]1 [Example 4, 2-(2-Isobutoxyphenyl)-6-purinone] | 5.3 µmol/kg | 1.74 µM | 
8 | CCOc1ccccc1-c1nc2nc[nH]c2c(=O)[nH]1 [Example 2, 2-(2-Ethoxyphenyl)-6-purinone] | 6.5 µmol/kg | 4.49 µM | 
9 | CC(C)COc1ccccc1-c1nc2[nH]c(=O)[nH]c2c(=O)[nH]1 [Example 9, 2-(2-Isobutoxypheny)purine-6,8-dione] | 4.5 µmol/kg | 3.64 µM | 
